Source: article PMC12591191, “SIRT6 Lysine‐Demyristoylates ATF2 to Ameliorate Vascular Injury via PRKCD/VE‐Cadherin Pathway Regulating Vascular Endothelial Barrier” (Advanced Science, 2025)

Experiments:
293T cells = assay: Global myristoylation level, western blot; assay type: cell-based
Protocol: (§1) Protein samples were separated by SDS/PAGE and transferred to the PVDF membrane. The membrane was blocked with 5% BSA in TBST (25 mM Tris, pH 7.4, 150 mM NaCl, 0.1% Tween‐20), incubated with primary antibodies and secondary antibodies in TBST, and then treated with ECL Plus western blotting detection reagents (Bio‐rad). The chemiluminescence signal was analyzed by ChemiDoc imaging system (Bio‐rad).
(§2) HMEC‐1, obtained from Shanghai Zhong Qiao Xin Zhou Biotechnology, was cultured in MCDB131 medium containing 10% foetal bovine serum (FBS) and 1% antibiotics (penicillin and streptomycin) in 5% CO2 incubator at 37 °C. HUVEC, obtained from Shanghai Zhong Qiao Xin Zhou Biotechnology, were cultured in ECM medium containing 5% FBS, 1% antibiotics (penicillin and streptomycin) and 1% endothelial cell growth supplement (ECGS) in 5% CO2 incubator at 37 °C. HEK 293T were obtained from ATCC, and cultured in Dulbecco's modified Eagle's medium (DM EM) containing 10% FBS and 1% antibiotics (penicillin and streptomycin) in 5% CO2 incubator at 37 °C. The SIRT6 KO 293T cells were constructed by Hanbio Biotechnology, the SIRT6 gRNA was 5′‐[…]‐3′. SIRT6 overexpression and knockdown recombinant lentivirus were constructed by Hanbio Biotechnology, the vector pGLV3‐harboring SIRT6 and SIRT6 shRNA (5′‐[…]‐3′) were used for lentivirus packaging. […]

ATF2 in 293T = assay: ATF2 protein level, western blot; assay type: cell-based; conditions: 0–20 µg mL^−1, 12 h, n = 3
Protocol: as §1, §2

[1] = tested on: FLAG-tagged ATF2 in 293T cells; assay: ATF2 myristoylation, IP and Click-iT; assay type: cell-based; conditions: 10 µg mL^−1, 12 h, n = 3
Protocol: (§3) HMEC‐1, obtained from Shanghai Zhong Qiao Xin Zhou Biotechnology, was cultured in MCDB131 medium containing 10% foetal bovine serum (FBS) and 1% antibiotics (penicillin and streptomycin) in 5% CO2 incubator at 37 °C. HUVEC, obtained from Shanghai Zhong Qiao Xin Zhou Biotechnology, were cultured in ECM medium containing 5% FBS, 1% antibiotics (penicillin and streptomycin) and 1% endothelial cell growth supplement (ECGS) in 5% CO2 incubator at 37 °C. HEK 293T were obtained from ATCC, and cultured in Dulbecco's modified Eagle's medium (DM EM) containing 10% FBS and 1% antibiotics (penicillin and streptomycin) in 5% CO2 incubator at 37 °C. The SIRT6 KO 293T cells were constructed by Hanbio Biotechnology, the SIRT6 gRNA was 5′‐[…]‐3′. SIRT6 overexpression and knockdown recombinant lentivirus were constructed by Hanbio Biotechnology, the vector pGLV3‐harboring SIRT6 and SIRT6 shRNA (5′‐[…]‐3′) were used for lentivirus packaging. The plasmid ATF2WT, ATF2K296R, GFP‐ATF2WT and GFP‐ATF2K296R were synthesized by Hanbio Biotechnology, and the plasmid pUC57‐SIRT6 and all primers were synthesized by Tsingke Biotechnology.
Click chemistry was used for the detection of K296 myristoylation of exogenous ATF2. The click chemistry‐based labeling and detection technology was conducted according to the manufacturer's instructions (Click‐iT Protein Reaction Buffer Kit Invitrogen C10276).

FLAG‐ATF2 in 293T cells = assay: Nuclear localization of FLAG-ATF2, 293T; assay type: cell-based; conditions: 10 µg mL^−1, 12 h, n = 3
Protocol: as §1, §2

[2] = tested on: ATF2 in SIRT6 KD HMEC cells; assay: Nuclear localization of ATF2, HMEC; assay type: cell-based; conditions: 10 µg mL^−1, 12 h, n = 3; not the K296R mutant
Protocol: as §1, §2

[3] = tested on: endogenous ATF2 in HUVECs; assay: Nuclear localization of endogenous ATF2, HUVEC; assay type: cell-based; conditions: 10 µg mL^−1, 12 h, n = 3
Protocol: as §1, §2

[4] = tested on: VE‐Cadherin and PRKCD in HMEC-1; assay: VE-Cadherin and PRKCD expression, western blot, HMEC-1; assay type: cell-based; conditions: 10 µg mL^−1, 12 h, n = 3
Protocol: as §1, §2

HMEC-1 [5] = assay: Transendothelial permeability (transwell, FITC-dextran); assay type: cell-based; conditions: 10 µg mL^−1, 12 h; FITC‐dextran 6µg mL^−1, 2 h or 6h, n = 3
Protocol: as §2
HMEC‐1 transfected with relative plasmids were pretreated with ALK14(10 µg mL^−1) for 12 h and were grown on 0.4 µm‐pore transwell filters (Millipore, Bedford, MA) until confluent. […] Fluorescence of media in the lower chamber was detected at 485/530 nm by afluorescence microplate reader (FL × 800, BIO‐TEK Instruments).

HMEC-1 [6] = assay: Intercellular gap formation, VE-Cadherin immunofluorescence; assay type: cell-based; conditions: 10 µg mL^−1, 12 h, n = 8–10; prevented by K296R
Protocol: as §3

HMEC-1 [7] = assay: Endothelial-stromal differentiation (CD31 and αSMA western blot); assay type: cell-based; conditions: 10 ug/ml, 12h, n=3
Protocol: as §1, §2

[8] = tested on: ATF2 localization and PRKCD/VE‐cadherin axis in HUVECs; assay: ALK14 versus myristic acid, ATF2 localization and PRKCD/VE-cadherin axis; assay type: cell-based; conditions: each 10 μg/ml, 12 hours
Protocol: as §1, §2

SIRT6 = SIRT6 activator, ref [57]; cited from earlier work
From the text: Table 1 The activators of SIRT6 were represented with structure, EC50, category, company, indications, and reference. | column: EC50

| SMILES | global myristoylation level, dose dependence (293T cells; 0–10 µg mL^−1, 12 hours) | global myristoylation level, ALK14-treated versus untreated (293T cells; SIRT6 WT and KO cells, 10 μg/ml) | ATF2 protein level (ATF2 in 293T) | ATF2 myristoylation level [1] | nuclear FLAG‐ATF2 accumulation (FLAG‐ATF2 in 293T cells) | nuclear accumulation of wild‐type ATF2 [2] | ATF2 translocation [3] | PRKCD expression [4] | VE‐cadherin expression [4] | endothelial permeability, ATF2 K296R cells (HMEC-1 [5]) | endothelial permeability, ATF2 WT cells (HMEC-1 [5]) | intercellular gap formation (5 µm/10 µm), ATF2 WT (HMEC-1 [6]) | effect on endothelial‐stromal differentiation (HMEC-1 [7]) | impact on ATF2 localization and PRKCD/VE‐cadherin axis, myristic acid versus ALK14 [8] | EC50 (SIRT6) |
| --- | --- | --- | --- | --- | --- | --- | --- | --- | --- | --- | --- | --- | --- | --- | --- |
| C#CCCCCCCCCCCCC(=O)O [ALK14, Alkynyl myristic acid] | dose‐dependent increases | significantly elevated global myristoylation levels | remained stable | significant myristoylation enhancement | significantly reduced nuclear FLAG‐ATF2 accumulation | reduced nuclear accumulation of wild‐type ATF2 | translocation of endogenous ATF2 from nucleus to cytoplasm | PRKCD reduction | significantly reduced VE‐cadherin expression | absent in K296R mutants | ALK14‐induced permeability in ATF2 WT cells | ALK14‐induced gap formation | Neither ALK14 nor ATF2 modification influenced endothelial‐stromal differentiation | equivalent impacts | – |
